Data published in patent US20250034130A1, “Crystal Form of Tolebrutinib, Preparation Method Therefor and Use Thereof” (Principia Biopharma Inc., priority 2021, published 2025).
“Also recorded” adds a separate entry of the source.

Experiments:
Type in all cases: physicochemical
[1] = Physical and chemical stability on storage in opened packages (purity by UPLC, solid form by XRPD); details: for Chemical purity after storage (in words): 60° C./75% RH (b74 also name 80° C. and light)
Description: X-ray powder diffraction patterns in the present disclosure were acquired by a Bruker X-ray powder diffractometer. The parameters of the X-ray powder diffraction method of the present disclosure are as follows: • X-Ray: Cu, Kα • Kα1 (Å): 1.54060; Kα2 (Å): 1.54439 • Kα2/Kα1 intensity ratio: 0.50
(§1) The related substance in the present disclosure was detected by UPLC and the parameters are shown below.
Said “room temperature” is not a specific temperature, but a temperature range of 10-30° C. Said “open packaged” is putting the sample into a glass vial, covering the vial with aluminum foil, and punching 5-10 holes on the foil.
(§2) Form CSII of the present disclosure and the prior art amorphous form were weighed and stored under 25° C./60% RH, 40° C./75% RH and 60° C./75% RH conditions, in opened packages, respectively. The purity and solid form were determined by UPLC and XRPD. The results are listed in Table 3, and the overlaid XRPD patterns of Form CSII before and after storage for stability evaluation are shown in FIG. 4.
as §2, with “CSIII” for “CSII”, “10,” for “3,”, “9.” for “4.”
as §2, with “CSIV” for “CSII”, “C./60%” for “C./60% RH, 40° C./75%”, “40°” for “60°”, “16,” for “3,”, “15.” for “4.”

[2] = Light stability (Chinese Pharmacopoeia method, purity by UPLC); details: light not less than 1.2×10^6 lux-hr, near-UV not less than 200 W-hr/m^2; for Purity change: 1 week; for Chemical purity (in words): about 1 week
Excerpt: as §1
(§3) Certain amounts of Form CSII of the present disclosure and the prior art amorphous form were weighted and stored for about 1 week, in accordance with the method of the Chinese Pharmacopoeia, under the condition that the total illumination of the light source was not less than 1.2×106 lux-hr and the energy of the near-ultraviolet lamp was not less than 200 W-hr/m^2, the purities of the solids before and after storage were measured by UPLC and the results are shown in Table 5.
as §3, with “CSIII” for “CSII”, “1.2×10^6” for “1.2×106”, “12.” for “5.”
as §3, with “CSIV” for “CSII”, “1.2×10^6” for “1.2×106”, “18.” for “5.”

[3] = Stability at high temperature (80° C., 2 days, purity by UPLC); details: for Purity change / Chemical purity (in words): 2 days; for Purity change: glass vial with cap
Description: as §1
Certain amounts of Form CSII of the present disclosure and the prior art amorphous form were weighted and stored at 80° C. for 2 days, and the purities of the solids before and after storage were determined by UPLC, the results are as shown in Table 4.
Certain amounts of Form CSIII of the present disclosure and the prior art amorphous form were weighted and stored at 80° C. for 2 days, and the purities of the solids before and after storage were determined by UPLC, the results are as shown in Table 11.
Certain amounts of Form CSIV of the present disclosure and the prior art amorphous form were stored at 80° C. for 2 days, and the purities of the solids before and after storage were determined by UPLC, the results are as shown in Table 17.

[4] = Hygroscopicity by DVS (0% RH-95% RH-0% RH at 25° C.); details: for Weight gain at 80% RH: DVS; for Weight gain at 80% RH / Hygroscopicity class: 25° C.; for Hygroscopicity class: weight gain at 80% RH
Description: DVS was measured via an SMS (Surface Measurement Systems Ltd.) intrinsic DVS instrument.
Parameters for DVS method are as follows: • Temperature: 25° C. • Gas and flow rate: nitrogen, 200 mL/min • RH range: 0% RH to 95% RH • ^1H NMR were collected from a Bruker Avance II DMX 400M HZ NMR spectrometer. 1-5 mg of sample was weighed and dissolved in 0.5 mL of deuterated dimethyl sulfoxide to obtain a solution with a concentration of 2-10 mg/mL.
Certain amounts of Form CSII of the present disclosure and the prior art amorphous form were sampled for hygroscopicity tests using DVS instrument. The weight change at each relative humidity was recorded during the cycle of 0% RH-95% RH-0% RH at 25° C.
Description and definition of hygroscopicity (general notice 9103 drug hygroscopicity test guidelines in 2020 edition of Chinese Pharmacopoeia, experimental condition: 25±1° C., 80±2% RH):
Certain amounts of Form CSIII of the present disclosure and the prior art amorphous form were sampled for hygroscopicity tests using DVS instrument. The weight change at each relative humidity was recorded during the cycle of 0% RH-95% RH-0% RH at 25° C.
Certain amounts of Form CSIV of the present disclosure and the prior art amorphous form were sampled for hygroscopicity tests using DVS instrument. The weight change at each relative humidity was recorded during the cycle of 0% RH-95% RH-0% RH at 25° C.

[5] = Grinding stability (manual grinding 5 minutes in a mortar, XRPD); details: ground manually 5 minutes in a mortar
Description: Form CSII was grounded manually for 5 minutes in a mortar. XRPD was tested before and after the grinding.
Form CSIII was grounded manually for 5 minutes in a mortar. XRPD was tested before and after the grinding.
Form CSIV was grounded manually for 5 minutes in a mortar. XRPD was tested before and after the grinding.

[6] = Stability of crystalline form in tablet formulation process (XRPD before and after); details: tablets per Table 7 and Table 8, XRPD
Description: According to the formulation and process in Table 7 and Table 8, the tablets were prepared with an appropriate amount of Form CSII of the present disclosure. XRPD was tested before and after formulation.
According to the formulation and process in Table 7 and Table 8, the tablets were prepared with an appropriate amount of Form CSIII of the present disclosure. XRPD was tested before and after formulation.
According to the formulation and process in Table 7 and Table 8, the tablets were prepared with an appropriate amount of Form CSIV of the present disclosure. XRPD was tested before and after formulation.

[7] = 25° C./60% RH, 6 months, open package
[8] = 40° C./75% RH, 2 months, open package
[9] = 40° C./75% RH, 6 months, open package
[10] = 60° C./75% RH, 1 month, open package
[11] = Initial, ICH Q3A (R2) thresholds

Structure (SMILES): C=CC(=O)N1CCC[C@@H](n2c(=O)n(-c3ccc(Oc4ccccc4)cc3)c3c(N)nccc32)C1 [Amorphous, (R)-1-(1-acryloylpiperidin-3-yl)-4-amino-3-(4-phenoxyphenyl)-1H-imidazo[4,5-c] pyridin-2(3H)-one, reference compound]
- Purity [1, 7]: 99.57%
- Purity change [1, 7]: −0.23%
- Solid form [1, 7]: Amorphous
- The number of the purities exceeding the qualification thresholds [1, 7]: 1
- Chemical purity after storage (in words) ([1]; 25° C./60% RH, 40° C./75% RH, listed as prior art amorphous form): decreased significantly
- Chemical purity after storage (in words) ([1]; 25° C./60% RH, 40° C./75% RH, listed as prior art solid): decreases significantly
- Purity decrease ([1]; 40° C./75% RH, 2 months): 2.18%
- Purity [1, 8]: 97.62%
- Purity change [1, 8]: −2.18%
- Solid form [1, 8]: Amorphous
- Purity decrease ([1]; 40° C./75% RH, 6 months): 3.46%
- Purity [1, 9]: 96.34%
- Purity change [1, 9]: −3.46%
- Solid form [1, 9]: Amorphous
- The number of the purities exceeding the qualification thresholds [1, 9]: 4
- The number of the purities exceeding the qualification thresholds ([1]; 40° C./75% RH, 6 months, open package, listed as prior art amorphous form): four
- The number of the purities exceeding the qualification thresholds ([1]; 40° C./75% RH, 6 months, open package, listed as prior art solid): four
- Purity decrease ([1]; 60° C./75% RH, 1 month): over 6.3%
- Purity [1, 10]: 93.48%
- Purity change [1, 10]: −6.32%
- Solid form [1, 10]: Amorphous
- The number of the purities exceeding the qualification thresholds [1, 10]: 4
- The number of the purities exceeding the qualification thresholds ([1]; 60° C./75% RH, 1 month, open package, listed as prior art amorphous form): four
- The number of the purities exceeding the qualification thresholds ([1]; 60° C./75% RH, 1 month, open package, listed as prior art solid): four
- Purity ([1]; Initial): 99.80%
- Solid form ([1]; Initial): Amorphous
- The number of the purities exceeding the qualification thresholds [1, 11]: 1
- Purity change [2]: −0.11%
- Chemical purity (in words) ([2]; listed as amorphous form): significant degradation
- Purity change [3]: −1.16%
- Chemical purity (in words) ([3]; listed as amorphous form): significant degradation
- Weight gain at 80% RH ([4]; 80% RH, listed as Prior art solid): 3.69%
- Weight gain at 80% RH ([4]; 80% RH, listed as The prior art amorphous form): 3.69%
- Weight gain at 80% RH ([4]; 80% RH, listed as prior art amorphous form): 3.69%
- Weight gain at 80% RH ([4]; 80% RH, listed as prior art solid): 3.69%
- Hygroscopicity class ([4]; listed as prior art amorphous form): hygroscopic
- Hygroscopicity class ([4]; listed as prior art solid): hygroscopic

Structure (SMILES): C=CC(=O)N1CCC[C@@H](n2c(=O)n(-c3ccc(Oc4ccccc4)cc3)c3c(N)nccc32)C1 [Form CSII, (R)-1-(1-acryloylpiperidin-3-yl)-4-amino-3-(4-phenoxyphenyl)-1H-imidazo[4,5-c] pyridin-2(3H)-one]
- Crystalline state after grinding [5]: remains unchanged
- Chemical purity during storage ([1]; 25° C./60% RH): above 99.8%
- Time for which the crystalline state doesn't change / form is stable ([1]; 25° C./60% RH): at least 6 months
- Purity [1, 7]: 99.89%
- Purity change [1, 7]: +0.03%
- The number of the purities exceeding the qualification thresholds [1, 7]: 0
- Time for which the crystalline state doesn't change / form is stable ([1]; 40° C./75% RH): at least 6 months
- Chemical purity during storing ([1]; 40° C./75% RH and 60° C./75% RH): above 99.8%
- Purity [1, 9]: 99.87%
- Purity change [1, 9]: +0.01%
- The number of the purities exceeding the qualification thresholds [1, 9]: 0
- Time for which the crystalline state doesn't change ([1]; 60° C./75% RH): at least 1 month
- Solid form and purity after storage ([1]; 60° C./75% RH, 1 month): remained basically unchanged
- Purity [1, 10]: 99.82%
- Purity change [1, 10]: −0.04%
- The number of the purities exceeding the qualification thresholds [1, 10]: 0
- Purity ([1]; Initial): 99.86%
- The number of the purities exceeding the qualification thresholds [1, 11]: 0
- Impurity content versus qualification threshold ([1]; throughout the stability investigation processes): did not exceed the qualification thresholds; also recorded: did not exceed the qualificated threshold
- Crystalline state after formulation process (mixed with excipients, tableted) [6]: remained unchanged; also recorded: did not change
- Purity change [2]: −0.02%
- Chemical purity (in words) [2]: basically remained unchanged
- Time for which there is no change in the purity [2]: at least 1 week
- Time for which chemical purity remains substantially unchanged [3]: at least 2 days
- Chemical purity (in words) [3]: basically remained unchanged
- Purity change [3]: +0.01%
- Weight gain relative to that of the prior art ([4]; 80% RH): ⅙
- Weight gain at 80% RH ([4]; 80% RH): 0.60%
- Crystalline state after the DVS test ([4]; XRPD before and after DVS): remained unchanged
- Hygroscopicity class [4]: slightly hygroscopic
